The values that follow come from patent US20030069276A1, “Amino piperidine derivatives” (priority 2001, published 2003).

Structures are written as SMILES.

Sequence of human CCR5 (P51681 whole entry): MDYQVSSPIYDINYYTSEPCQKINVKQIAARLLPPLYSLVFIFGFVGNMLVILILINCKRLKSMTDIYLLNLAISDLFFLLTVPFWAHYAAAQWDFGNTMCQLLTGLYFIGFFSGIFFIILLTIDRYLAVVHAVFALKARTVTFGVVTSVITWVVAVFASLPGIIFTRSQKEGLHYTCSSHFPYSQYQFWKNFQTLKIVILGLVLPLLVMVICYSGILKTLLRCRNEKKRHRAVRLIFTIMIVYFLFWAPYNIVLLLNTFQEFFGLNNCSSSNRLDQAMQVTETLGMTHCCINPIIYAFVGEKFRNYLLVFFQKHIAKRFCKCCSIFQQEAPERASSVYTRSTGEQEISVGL

The target of this assay is human CCR5 (Homo sapiens, UniProt P51681). Put plainly: gp120-sCD4-CCR5 binding assay (FACS). The following applies: CHO-K1 cell line stably transfected with the human CCR5 gene; biotinylated gp120 (JRFL strain) and soluble recombinant CD4; 1% DMSO. The procedure: gp120-sCD4-CCR5 Binding Assay:
The gp120-sCD4-CCR5 binding assay was carried out as previously described (Dragic, T., A. Trkola, et al. (2000). “A binding pocket for a small molecule inhibitor of HIV-1 entry within the transmembrane helices of CCR5.” Proc Natl Acad Sci USA 97: 5639-44.) with the following minor modifications: the cell line used for these experiments was a CHO-K1 cell line stably transfected with the human CCR5 gene; the gp120-CD4 complex comprised recombinant biotinylated gp120 (JRFL strain) and soluble recombinant CD4; and all compounds were tested in a final concentration of 1% DMSO.
All reagents and cell lines were obtained from Progenics Pharmaceuticals Inc, Tarrytown, N.Y., USA, and are commercially available or can be prepared according to the methods described and the information given in the papers above.
With `Cc1ccc(-c2nc(CN3CCC(N(Cc4ccccc4)C(=O)Nc4ccccc4)CC3)c(C)[nH]2)cc1` [1-Benzyl-1-[1-[5-methyl-2-(4-methylphenyl)-1H-imidazol-4-ylmethyl]-4-piperidinyl]-3-phenylurea], the IC50 – broadly, the concentration that gives 50% inhibition – was found to be 30 nM.
For the molecule `Cc1[nH]c(-c2ccc(C(F)(F)F)cc2)nc1CN1CCC(N(Cc2ccccc2)C(=O)Nc2ccc([N+](=O)[O-])cc2)CC1` [1-Benzyl-1-[1-[[2-[4-(trifluoromethyl)phenyl]-5-methyl-1H-imidazol-4-yl]methyl]-4-piperidinyl]-3-(4-nitrophenyl)urea], the half-maximal inhibitory concentration (IC50) was 450 nM.
For the molecule `CNC(=O)N(Cc1ccccc1)C1CCN(Cc2c(C)nc(-c3ccc(C(F)(F)F)cc3)n2Cc2ccccc2)CC1` [1-Benzyl-1-[1-[[3-benzyl-5-methyl-2-[4-(trifluoromethyl)phenyl]-3H-imidazol-4-yl]methyl]-4-piperidinyl]-3-methylurea], the half-maximal inhibitory concentration (IC50) amounted to 1100 nM.
As for `CNC(=O)N(Cc1ccccc1)C1CCN(Cc2nc(-c3ccccc3OC)[nH]c2C)CC1` [1-Benzyl-1-{1-[2-(2-methoxy-phenyl)-5-methyl-1H-imidazol-4-ylmethyl]-piperidin-4-yl}-3-methyl-urea], the half-inhibitory concentration (IC50) is 9600 nM.
With `CNC(=O)N(Cc1ccccc1)C1CCN(Cc2nc(-c3ccc(C(F)(F)F)cc3)[nH]c2C)CC1` [1-Benzyl-3-methyl-1-[1-[[5-methyl-2-[4-(trifluoromethyl)phenyl]-1H-imidazol-4-yl]methyl]-4-piperidinyl]urea] the figure was 110 nM; with `CNC(=O)N(Cc1ccccc1)C1CCN(Cc2nc(-c3ccc(C(F)(F)F)cc3)[nH]c2-c2ccccc2)CC1` [1-Benzyl-3-methyl-1-[1-[[5-phenyl-2-[4-(trifluoromethyl)phenyl]-1H-imidazol-4-yl]methyl]-4-piperidinyl]urea], 19100 nM.
